Results from paper PMC8583042, “New Hybrid Compounds Combining Fragments of Usnic Acid and Thioether Are Inhibitors of Human Enzymes TDP1, TDP2 and PARP1” (International Journal of Molecular Sciences, 2021).

Legend:
[1] = EZ4U colorimetric cytotoxicity test, HEK293A; type: cell-based; conditions: human
Text: (§1) The low intrinsic cytotoxicity of the additional drug component in the clinically used anticancer cocktails with traditional drugs is very important for treatment. This approach in chemotherapy can reduce the potential resulting toxic load on the body in the case of a combined action of these inhibitors on the activity of several targets. […] The effects of the tested compounds on cell survival are shown on Figure 4 and the CC50 values for three cell lines are shown in Table 1. The intrinsic cytotoxicity of a number of the studied compounds is quite high, namely, they have close IC50 values against the TDP1 and CC50 values on one or several studied cell lines. Most of the compounds generally were more toxic for the HEK293FT and HeLa cell lines than for the HEK293A cell line (Table 1 and Figure 4). The cytotoxicity of the three leader compounds, 7g, 10a, and 7h, was quite high. […] Compound 10b was one of the least toxic among the ten tested compounds.
(§2) Cytotoxicity of the compounds was examined against human cell lines HEK293A (human embryonic kidney)—WT, TDP1 deficient (Tdp1-/-), PARP1 deficient (PARP1-/-), and HeLa (cervical cancer) using an EZ4U colorimetric test (Biomedica, Vienna, Austria). The HEK293A cell line was obtained from Thermo Fisher Scientific (Waltham, MA, USA), and the HeLa cell line was obtained from the Russian Cell Culture Collection (RCCC) Institute of Cytology RAS, St. Petersburg, Russia. The cells were grown in DMEM/F12 medium (Gibco, Thermo Fisher Scientific, Waltham, MA, USA), with 1x GlutaMAX (Gibco, Thermo Fisher Scientific, Waltham, MA, USA), 50 IU/mL penicillin, 50 μg/mL streptomycin (MP Biomedicals), and in the presence of 10% fetal bovine serum (Biolot, Saint-Petersburg, Russia) in a 5% CO2 atmosphere. Cells were grown in the presence of 1% DMSO in the control wells. After the formation of a 30–50% monolayer, the tested compounds were added to the medium, and the cell culture was monitored for 3 days. The values were normalized to their own control in each case. At least three independent experiments were carried out. The 50% cytotoxic concentration (CC50) was defined as the compound concentration that reduced the cell viability by 50% when compared to the untreated controls. The compound concentration that caused 50% cell growth inhibition was determined using OriginPro 8.6.0 software (OriginLab, Northampton, MA, USA). The measurements were carried out in three independent experiments.

[2] = Colorimetric cytotoxicity test, HEK293FT; type: cell-based; conditions: human, HEK293FT cells, intrinsic cytotoxicity
Text: as §1, §2

[3] = tested on: HeLa cells; assay: Cytotoxicity of the combination of 10a and topotecan on HeLa cells; type: cell-based, human
Text: TDP1 is able to cleave the TOP1–DNA complex, thus preventing the action of Tpc and decreasing the efficiency of this clinically used drug. The inhibition of TDP1 activity can increase the efficiency of Tpc. Next, we checked the cytotoxic effect of the combination of Tpc and examined the TDP1 inhibitors compared to Tpc alone on HeLa cells and HEK293 cells.
We observed the suppressed cell growth in the joint presence of the TDP1 inhibitor and Tpc on HeLa cells compared to Tpc alone (Figure 5). We observed the synergistic effect both when we titrated 10a with addition of fixed Tpc (1 μM or 2 μM) and vice versa when we titrated Tpc with addition of fixed 10a (5 μM). […] The CC50 value of Tpc decreased from 2 μM (only Tpc) to 0.7 μM (Tpc with 5 μM 10a).
as §2, with “The 50% cytotoxic concentration (CC50) was defined as the compound concentration that reduced the cell viability by 50% when compared to the untreated controls.” left out, “The measurements were carried out in three independent experiments.” left out

[4] = Colorimetric cytotoxicity test, HEK293A PARP1-/-; type: cell-based; conditions: human, PARP1-/- HEK293A cells; PARP1-/- cell line, intrinsic cytotoxicity (Figure 6); read-out: CC50
Text: (§3) In our previous works, we checked the cytotoxic effect of Tpc and the TDP1 inhibitors—monoterpene 3-carene-derived compounds [48, 49] and UA combined with monoterpenoids, measured separately and jointly with Tpc—using a panel of HEK293FT and HEK293A Tdp1 knockout isogenic clones. […] The data on the HEK293FT mutants were of low reproducibility, which is why we decided to change the basic cell line to HEK293A [49]. In this work, we created new PARP1-/- HEK293A cells using the CRISPR–Cas9 approach (Figure S27). […] We checked the intrinsic cytotoxicity of the leader compound (10a) on the HEK293 wild type and TDP1-/- and PARP1-/- cell lines using a colorimetric test (Figure 6). […] There was no difference between the WT and mutant cells.
(§4) Cytotoxicity of the compounds was examined against human cell lines HEK293A (human embryonic kidney)—WT, TDP1 deficient (Tdp1-/-), PARP1 deficient (PARP1-/-), and HeLa (cervical cancer) using an EZ4U colorimetric test (Biomedica, Vienna, Austria). […] After the formation of a 30–50% monolayer, the tested compounds were added to the medium, and the cell culture was monitored for 3 days. […] The compound concentration that caused 50% cell growth inhibition was determined using OriginPro 8.6.0 software (OriginLab, Northampton, MA, USA). […]

[5] = Colorimetric cytotoxicity test, HEK293A Tdp1-/-; type: cell-based; conditions: human, HEK293A Tdp1-/- cells; TDP1-/- cell line, intrinsic cytotoxicity (Figure 6)
Text: as §3, §4

[6] = tested on: HEK293 wild type and TDP1-/- and PARP1-/- cell lines; assay: Joint action of 10a and Tpc on HEK293 wild type, TDP1-/- and PARP1-/- cells; type: cell-based, human; conditions: data not shown
Text: as §3, §4

With CC(=O)C1=C(O)C=C2Oc3c(C(=O)C[S+]([O-])c4nc5ccccc5s4)c(O)c(C)c(O)c3[C@@]2(C)C1=O (stereo partly drawn) [10a, (2R)-4-acetyl-10-[2-(1,3-benzothiazole-2-sulfinyl)acetyl]-5,11,13-trihydroxy-2,12-dimethyl-8-oxatricyclo[7.4.0.0^2,7]trideca-1(13),4,6,9,11-pentaen-3-one] the CC50 at 3 days ([1]; HEK293A cells, intrinsic cytotoxicity, 3 days, read-out: HEK293A CC50) was 20 ± 2 µM, the CC50 at 3 days ([1]; wild-type HEK293A cells, HEK293 wild type, intrinsic cytotoxicity (Figure 6), read-out: CC50) was 15 to 20 µM and the CC50 at 3 days [2] was 15 ± 2 µM. The “Synergy with Tpc (in words)” value ([3]; HeLa cells) was “promising synergy”, the CC50 ([3]; Homo sapiens, HeLa, 10a titrated with fixed 2 μM Tpc, read-out: CC50 of 10a with Tpc) was 3 µM and the CC50 at 3 days [4] was 15 to 20 µM. The CC50 at 3 days [5] was 15 to 20 µM and the “Effect of the joint presence of 10a and Tpc (in words)” value [6] was “did not observe any effect”.
